What was measured:
[1] = test system: diabetic rats; experiment: blood sugar of diabetic rats after subcutaneous injection (Example 37); type: in vivo, wistar rats; conditions: same dose (4.1 IU)
Experimental: Male wistar rats of 4-6 weeks were selected and fed for two weeks. streptozotocin (STZ) was administered once in a dose of 180 mg/kg (administered according to the specific body weight of the rat). The STZ was weighed according to the weight of the rat, put in a sterilized bottle, then wrapped with tinfoil. The sodium citrate buffer solution and the STZ bottle were brought into the animal room under ice bath conditions. A sodium citrate buffer solution with a concentration of 1% STZ (1 g/100 ml) was prepared, and injected into the tail vein within 30 minutes to prevent inactivation. After injection of STZ, adequate drinking water and feed were given every day. Fasting blood sugar was measured on the 1st day, 7th day, and 10th day. If it was greater than 16.65 mmol/L, it was a stable diabetes model. Diabetic rats were taken and divided into 4 groups (4 rats in each group). The group of diabetic rats were subcutaneously injected (1) 1.5 mg M3-2, (2) 2.0 mg M3-2 (4.1 IU), (3) 1.0 mL PBS buffer solution and (4) insulin (4.1 IU). Blood sugar in rats was monitored for a period of time after injection.

[2] = test system: diabetic rats; experiment: glucose challenge 2.5 h after injection in diabetic rats (Example 38); type: in vivo, wistar rats; conditions: 4.1 IU subcutaneous in the neck, glucose 1.5 g/kg i.p. after 2.5 h, compared with normal group
Experimental: Male wistar rats of 4-6 weeks were selected and fed for two weeks. streptozotocin (STZ) was administered once in a dose of 180 mg/kg (administered according to the specific body weight of the rat). The STZ was weighed according to the weight of the rat, put in a sterilized bottle, then wrapped with tinfoil. The sodium citrate buffer solution and the STZ bottle were brought into the animal room under ice bath conditions. A sodium citrate buffer solution with a concentration of 1% STZ (1 g/100 ml) was prepared, and injected into the tail vein within 30 minutes to prevent inactivation. After injection of STZ, adequate drinking water and feed were given every day. Fasting blood sugar was measured on the 1st day, 7th day, and 10th day. If it was greater than 16.65 mmol/L, it was a stable diabetes model. 2 groups of diabetic rats and 1 group of normal rats (4 rats in each group) were taken. Diabetic rat groups were subcutaneously injected with (1) 2.0 mg M3-2 (4.1 IU) and (2) insulin (4.1 IU) in the neck respectively. After 2.5 h of injection, g lucose (1.5 g/kg) was intraperitoneally injected into rats in the diabetes group and the normal group, and the blood sugar was detected.

[3] = test system: diabetic mice; experiment: glucose challenge after patch or injection in diabetic mice (Example 41); type: in vivo, C57bl/6 mice; conditions: 12.0 IU/kg, glucose 1.5 g/kg i.p. after 2.5 h, compared with normal group
Experimental: 1.5 mg of M3-2 was added into 0.5 mL of ultrapure water, ultrasonically dispersed evenly. 0.25 g of hyaluronic acid (HA) was added, and stirred at room temperature until a homogeneous system was obtained to obtain an HA aqueous solution of M3-2, which was used as a pouring material of microneedle (Microneedles, MNs). 1 g of HA was added to 1 mL of ultrapure water and stirred at room temperature until clear and transparent to obtain a blank solution of HA, which was used as the base material of MNs. 50 μL HA aqueous solution of M3-2 was taken and added to the surface of the mold. […]
C57bl/6 mice (male, 4-6 weeks) were selected and fed adaptively for two weeks at room temperature of 24° C.±1° C., humidity of 55% for 12 h with bright cycle (8:00-20:00) with adequate water and feed. […] Fasting blood glucose was measured on the 3rd, 5th, 7th, 10th, and 21st days, and it was a stable diabetes model if it was greater than 16.65 mmol/L.
2 groups of diabetic mice and 1 group of normal mice (4 mice in each group) were taken. […] After 2.5 h of injection or patch, glucose (1.5 g/kg) was intraperitoneally injected into mice in the diabetes group and the normal group, and the blood sugar was detected.

insulin
duration of blood glucose at 100-200 mg/dL [1]: 4.5 h
blood sugar regulation after intraperitoneal glucose [2]: the blood sugar quickly returns to a higher blood sugar level
blood sugar regulation after intraperitoneal glucose [3]: the blood sugar quickly rises to a higher blood sugar level after glucose injection

Source: patent US20230310333A1, “MESOPOROUS SILICA NANOPARTICLE CONTROLLED RELEASE SYSTEM, PREPARATION METHOD THEREFOR AND APPLICATION THEREOF” (East China University of Science and Technology, priority 2020, published 2023)
